The text below walks through data of patent US20010000513A1, “Biphenyl butyric acids and their derivatives as inhibitors of matrix metalloproteinases” (priority 1996, published 2001).

Data set [1] has as its system mice sensitized with a fragment of mouse myelin basic protein to induce EAE. Put plainly: Experimental Autoimmune Encephalomyelitis (EAE). Type of data set: in vivo. How it is done: Compounds were administered by oral route to mice sensitized with a fragment of mouse myelin basic protein to induce EAE. Mice were dosed daily for 21 days beginning 4 hours before sensitization on day one. EAE responses of compound treated groups were compared to those of a control group of mice sensitized identically and a sham-sensitized group treated with vehicle. The values reported in Table 2 include responses during compound treatment only.
Sensitization Female mice [PL/J(FI)×SJL/J, Jackson Labs], 11 weeks old, were sensitized s.c. (0.05 cc×2) at the base of the tail with an emulsion containing equal parts of mouse myelin basic protein (MBP) fragment (amino acids 1-9 of the N-terminus of MBP) in saline and Difco Complete Freund's Adjuvant (CFA) fortified with heat killed desiccated Mycobacteria tuberculosis (MT). Each mouse received 300 μg of MBP fragment (230 μg free base) and 200 μg MT followed by retrobulbar (IV) injection of 200 ng of B. pertussis toxin in 0.2 cc of saline. Two days later mice receive a second injection of B. pertussis toxin.
Neurological Assessment Animals were weighed and evaluated for symptoms of EAE before and frequently after sensitization. EAE score: (0.5=slight limp tail, 1=limp tail or slow to right, 1.5=slight limp tail and slow to right, 2=paresis/mild paralysis or incontinence, 2.5=mild paralysis and slow to right or complete paralysis (one hind limb), 3=hind limb paralysis (both), 3.5=hind limb paralysis (both) and limp torso; 4=additional fore limb paralysis, 4.5=head movement only, 5=moribund, death after previous EAE symptoms). Evaluators were blinded as to compound treatments and previous behavioral scores.
Disease symptoms are compared among groups for EAE severity, incidence, time to onset, cumulative score, and deaths. Peak EAE score: the mean of the highest score for each mouse in a group, independent of duration of symptoms; EAE incidence: the mean number of mice showing symptoms of EAE, defined as having EAE scores on any 3 consecutive days that total “≧3.0”. EAE deaths: an animal that died must have presented previous evidence of an EAE score greater than 0.5; EAE onset: the first of a 3-day series scoring a total of ≧3.0.
A Cumulative EAE score is calculated for each animal. A mean of all animals' cumulative scores is then determined for each day.
Experimental groups were assumed to be similar and were compared for statistical significance by a 2-tailed T-Test (p≦0.05).
Compound was homogenized manually with an aliquot of warm vehicle (1.0% hydroxypropyl-methylcellulose [Sigma] in water) in glass mortar tubes and homogenizing pestle. The smooth compound paste was gradually suspended in vehicle. Mice were dosed with compound and/or vehicle, 10 mL/kg in groups of ten. A sham-sensitized group was similarly dosed with vehicle.

Data set [2] concerns Female Lewis rats sensitized to streptococcal cell walls. Kind of data set: Streptococcal Cell Wall Model (SCW), paw swelling. Type of data set: in vivo. Conditions: rat SCW flare. On the procedure:
Female Lewis rats (125-150 g) are sensitized to the 100 P preparation of streptococcal cell walls (obtained from Lee Labs, Greyson, Ga.) with an intra-articular injection of 10 μL SCW containing 6 μg of the cell wall particles into one of the ankle joints. The contralateral ankle joint is injected with an equal volume of saline. Twenty-one days later, animals are placed in treatment groups (7 per group) according to their immediate response to the intra-articular injection of SCW (to obtain groups with equivalent responses). A control group is injected with saline. Each animal is then lightly anesthetized with ether, the paw volumes of each hind paw are determined by mercury plethysmography, and the animals are injected IV via the tail vein with a 0.25-mL dose of SCW containing 100 μg of the 100 P cell wall particles. Each group of rats receives an oral dose of compound for 7 days in an appropriate dosing vehicle beginning on Day 21. Paw swelling is determined by subtracting the paw volume of the saline injected ankle from the SCW sensitized ankle. Percent inhibition is calculated by comparing the compound treatment group with the control group. A one-way analysis of variance with a Dunnett's test for multiple comparisons is used for determination of statistical power. Rats were sensitized 21 days prior to initiating the flare response by systemic SCW. […] Paw volume was measured 24 hours after the first administration. Numbers represent the mean percent inhibition of swelling from 10 animals/treatment group.

Data set [3] deals with male Wistar rats, polyarthritis induced by Mycobacterium butyricum. Kind of data set: Adjuvant Arthritis Model, hind paw edema. Type of data set: in vivo. Conditions: P <0.001. On the procedure:
Polyarthritis was induced by a modified method of the procedure developed by Chang, et al., Arthritis and Rheum., 1980;23:62. Briefly, male Wistar rats (100-115 g each) received subcutaneous injection of 0.1 mL of 10 mg/mL (or 1 mg) Mycobacterium butyricum suspended in paraffin oil in the distal third of the tail, using a glass tuberculin syringe and 25 gauge needle. M. Butyricum suspension was achieved by sonication in paraffin oil for 10 minutes with the vessel immersed in ice bath. Rates were randomized after injection and placed in cages. […] The rest were randomized and separated into dosing (test) groups (N=10 per group) and control (vehicle) group (N=20). The hind paws volume and the weights of each animal in each group was recorded and served as the initial values for the study. Hind paw swelling was assessed using mercury plethysmography beginning on Day 12 and every other day till Day 22 (final assessment).
The dose volume was 10 mL/kg PO. Animals were dosed twice daily for 10 days starting on Day 12. Also, hind paw volumes were measured on Days 12, 14, 16, 18, 20, and 22 as stated above. The results are reported as % inhibition of delta edema on Day 22. Delta edema is the difference in footpad edema between the day in which animals are assessed and that on Day 12 of the study. The percent inhibition is based on a comparison of the treatment groups to the vehicle group.

The subject of data set [4] is Male Swiss-Webster mice, 0.6% acetic acid i.p. Kind of data set: Acetic Acid-Induced Hyperalgesia Model, writhing. Type of data set: in vivo. To be noted: for % Inhibition (writhing): 1 hour before acetic acid. How it is done: Treatment groups (n=8) were divided so that 2 animals were placed into each of four 4″×4″×4″ adjacent plexiglass containers. Seven minutes after acid, writhing motions (abdominal contractions, concave arching of the back, and/or hindleg stretching) were tallied for 5 minutes. The ID40 value was calculated by linear regression analysis.

In the case of `O=C(O)CCC(=NO)c1ccc(-c2ccc(Cl)cc2)cc1` [Example 1, 4-(4′-Chloro-biphenyl−4-yl)-4-hydroxyimino-butyric acid], the “effect on EAE cumulative score” value in data set [1] (50 mg/kg oral) is “reduced the EAE cumulative score”. Also, the “EAE Onset” value in data set [1] (50 mg/kg oral daily for 21 days, control 12.2 ± 0.9, p ≦0.05 vs control) stood at 16.2 ± 1.0 days. The “EAE Cumulative Score” value in data set [1] (50 mg/kg oral daily for 21 days, control 31.6 ± 1.7, p ≦0.05 vs control) is 17.9 ± 2.8. In data set [1] (50 mg/kg oral daily for 21 days, during compound treatment, control 2/10), the “EAE Deaths” value is reported as 0/10. In addition, the “EAE Incidence” value in data set [1] (50 mg/kg oral daily for 21 days, mice with EAE/group, control 10/10) is on record as 9/10. Further, the “Peak EAE Score” value in data set [1] (50 mg/kg oral daily for 21 days, responses during compound treatment only, control 4.2 ± 0.1) was 3.8 ± 0.3. For the same compound, the “EAE-induced deaths to Day 43” value in data set [1] (50 mg/kg oral, to Day 43) is reported as “no EAE-induced deaths”. Besides, the “delay of the onset of EAE” value in data set [1] (dosed at 50 mg/kg oral) worked out at 4 days. Besides, the results for the “% Inhibition at Day 4 (paw swelling)” value in data set [2] (3 mg/kg bid oral), in data set [2] (10 mg/kg bid oral) and in data set [2] (30 mg/kg bid oral) were 71%, 86% and 86%, respectively. In addition, the “% Inhibition of delta edema on Day 22” value in data set [3] (3.0 mg/kg bid PO for 10 days from Day 12) is recorded as 68.1%; in data set [3] (10.0 mg/kg bid PO for 10 days from Day 12), 84.4%; in data set [3] (30.0 mg/kg bid PO for 10 days from Day 12) it was 99.9%. The “% Inhibition (writhing)” value in data set [4] (0.03 mg/kg oral) was found to be 7%; in data set [4] (0.1 mg/kg oral), 26%; in data set [4] (0.3 mg/kg oral) it was 37%; in data set [4] (1 mg/kg oral), 41%; in data set [4] (10 mg/kg oral), 65%. Further, in data set [4] (oral, calculated by linear regression analysis), the ID40 is 0.65 mg/kg.

Turning to `O=C(O)CCC(=NO)c1ccc(-c2ccc(Br)cc2)cc1` [Example 2, 4-(4′-Bromo-biphenyl-4-yl)-4-hydroxyimino-butyric acid], the melting point (as a rule, the temperature of the solid-liquid transition) was 175 to 176 °C.

For the compound `CN(C)N=C(CCC(=O)O)c1ccc(-c2ccc(Cl)cc2)cc1` [Example 3, 4-(4′-Chloro-biphenyl-4-yl)-4-(dimethylhydrazono)-butyric acid], the melting point lay in the range of 158 to 160 °C.

In turn, `CON=C(CCC(=O)[O-])c1ccc(-c2ccc(Cl)cc2)cc1.[Na+]` [Example 8, 4-(4′-Chloro-biphenyl-4-yl)-4-methoxyimino-butyric acid, sodium salt] yielded a melting point of 234 to 238 °C.

In turn, `CON=C(CCC(=O)O)c1ccc(-c2ccc(Cl)cc2)cc1` [Example 9, 4-(4′-Chloro-biphenyl-4-yl)-4-methoxyimino-butyric acid] gave a melting point of 183 to 186 °C.

On to `O=C(O)CCC(=NO)c1ccc(-c2ccc(Cl)cc2F)cc1` [Example 10, 4-(4′-Chloro-2′-fluoro-biphenyl-4-yl)-4-hydroxyimino-butyric acid], for which the melting point lay within 147.5 to 149.5 °C.

With `O=C(O)CCC(=NO)c1ccc(-c2ccccc2F)cc1` [Example 11, 4-(2′-Fluoro-biphenyl-4-yl)-4-hydroxyimino-butyric acid], the melting point fell in the range of 150 to 151.5 °C.

In turn, `Cc1ccc(-c2ccc(C(CCC(=O)O)=NO)cc2)cc1` [Example 12, 4-Hydroxyimino-4-(4′-methyl-biphenyl-4-yl)-butyric acid] yielded a melting point of 176.5 to 177.5 °C.

In the case of `COc1ccc(-c2ccc(C(CCC(=O)O)=NO)cc2)cc1` [Example 13, 4-Hydroxyimino-4-(4′-methoxy-biphenyl-4-yl)-butyric acid], the melting point was in the range of 157 to 160 °C.

Compound `N#Cc1ccc(-c2ccc(C(CCC(=O)O)=NO)cc2)cc1` [Example 14, 4-(4′-Cyano-biphenyl-4-yl)-4-hydroxyimino-butyric acid] yielded a melting point of 157 to 159 °C.

The compound `O=C(O)CCC(=NO)c1ccc(-c2cccc(F)c2)cc1` [Example 15, 4-(3′-Fluoro-biphenyl-4-yl)-4-hydroxyimino-butyric acid] returned a melting point of 155 to 157 °C.

The compound `O=C(O)CCC(=NO)c1ccc(-c2ccc(C(F)(F)F)cc2)cc1` [Example 16, 4-Hydroxyimino-4-(4′-trifluoromethyl-biphenyl-4-yl)-butyric acid] registered a melting point of 134 to 136 °C.

As for `CSc1ccc(-c2ccc(C(CCC(=O)O)=NO)cc2)cc1` [Example 17, 4-Hydroxyimino-4-(4′-methylsulfanyl-biphenyl-4-yl)-butyric acid], the melting point is 162 to 164 °C.

Take `O=C1CCC(c2ccc(-c3ccc(Cl)cc3)cc2)=NO1` [Example 18, 3-(4′-Chloro-biphenyl-4-yl)-4,5-dihydro-6-oxo-6H-1,2-oxazine]: the melting point lay in the range of 190 to 192 °C.
